According to patent publication US20250312352A1, “GLP-1R MODULATING COMPOUNDS” (Gilead Sciences, Inc., priority 2021, published 2025):

Target: T1, GLP-1R (Homo sapiens, UniProt P43220)
T1 construct: host or cells: CHO cells
Experiment: GLP-1R activation cAMP assay (Assay 1 or Assay 2)
Assay type: cell-based
Conditions: cAMP increase in CHO cells stably expressing GLP-1R; compounds run on one of the two cAMP assays
Summary of the method: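 EC50 values come from a sigmoidal fit of HTRF-detected cAMP rise versus log agonist concentration. GLP-1R-expressing CHO cells, equilibrated 1 h at 37 °C in HBSS with HEPES and BSA, received a 10-point compound dose series for 30 min before detection.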

T1 sequence (P43220 24-463): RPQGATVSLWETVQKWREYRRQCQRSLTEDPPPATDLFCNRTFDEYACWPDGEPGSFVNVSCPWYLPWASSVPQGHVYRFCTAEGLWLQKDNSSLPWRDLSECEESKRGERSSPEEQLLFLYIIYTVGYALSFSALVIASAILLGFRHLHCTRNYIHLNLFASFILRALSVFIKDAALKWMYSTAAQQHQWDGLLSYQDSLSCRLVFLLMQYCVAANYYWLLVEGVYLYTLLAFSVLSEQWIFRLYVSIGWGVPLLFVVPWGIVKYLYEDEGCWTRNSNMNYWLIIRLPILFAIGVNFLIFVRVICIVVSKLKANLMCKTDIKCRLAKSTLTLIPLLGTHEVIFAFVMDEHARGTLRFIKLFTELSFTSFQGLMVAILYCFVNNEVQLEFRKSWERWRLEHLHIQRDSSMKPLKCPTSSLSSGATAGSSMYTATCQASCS

SMILES | EC50 [nM]
CC1(C#Cc2ccc(COc3cccc(-c4cc(F)c(Cc5nc6ccc(C(=O)O)cc6n5C[C@@H]5CCO5)cc4F)n3)s2)COC1 [Example 113, (S)-2-(2,5-difluoro-4-(6-((5-((3-methyloxetan-3-yl)ethynyl)thiophen-2-yl)methoxy)pyridin-2-yl)benzyl)-1-(oxetan-2-ylmethyl)-1H-benzo[d]imidazole-6-carboxylic acid] | 0.16
O=C(O)c1ccc2nc(Cc3cc(F)c(-c4cccc(OCc5nnc(C(F)(F)F)s5)n4)cc3F)n(C[C@@H]3CCO3)c2c1 [Example 25, (S)-2-(2,5-difluoro-4-(6-((5-(trifluoromethyl)-1,3,4-thiadiazol-2-yl)methoxy)pyridin-2-yl)benzyl)-1-(oxetan-2-ylmethyl)-1H-benzo[d]imidazole-6-carboxylic acid] | 0.53
Cc1nc(COc2cccc(-c3cc(F)c(Cc4nc5ccc(C(=O)O)cc5n4C[C@H]4CCO4)cc3F)n2)sc1-c1cnn(C)c1 [Example 104, (R)-2-(2,5-difluoro-4-(6-((4-methyl-5-(1-methyl-1H-pyrazol-4-yl)thiazol-2-yl)methoxy)pyridin-2-yl)benzyl)-1-(oxetan-2-ylmethyl)-1H-benzo[d]imidazole-6-carboxylic acid] | 0.07
O=C(O)c1ccc2nc(Cc3cc(F)c(-c4cccc(OCc5cn6cccnc6n5)n4)cc3F)n(C[C@@H]3CCO3)c2c1 [Example 29, (S)-2-(2,5-difluoro-4-(6-(imidazo[1,2-a]pyrimidin-2-ylmethoxy)pyridin-2-yl)benzyl)-1-(oxetan-2-ylmethyl)-1H-benzo[d]imidazole-6-carboxylic acid] | 13.7
O=C(O)c1cc(F)c2nc(Cc3cc(F)c(-c4cccc(OCc5ccc(C#Cc6cnc(N7CC8CCC(C7)N8C7COC7)nc6)cc5F)n4)cc3F)n(C[C@@H]3CCO3)c2c1 [Example 152, 2-(2,5-difluoro-4-(6-((2-fluoro-4-((2-(8-(oxetan-3-yl)-3,8-diazabicyclo[3.2.1]octan-3-yl)pyrimidin-5-yl)ethynyl)benzyl)oxy)pyridin-2-yl)benzyl)-4-fluoro-1-(((S)-oxetan-2-yl)methyl)-1H-benzo[d]imidazole-6-carboxylic acid] | 0.68
Cn1cc(C#Cc2cc(F)c(COc3cccc(-c4cc(F)c(Cc5nc6ccc(C(=O)O)cc6n5C[C@@H]5CCO5)cc4F)n3)s2)cn1 [Example 117, (S)-2-(2,5-difluoro-4-(6-((3-fluoro-5-((1-methyl-1H-pyrazol-4-yl)ethynyl)thiophen-2-yl)methoxy)pyridin-2-yl)benzyl)-1-(oxetan-2-ylmethyl)-1H-benzo[d]imidazole-6-carboxylic acid] | 0.28
N#CC1(NC(=O)c2cc(Cl)c(COc3cccc(-c4cc(F)c(Cc5nc6c(F)cc(C(=O)O)cc6n5C[C@@H]5CCO5)cc4F)n3)cn2)CC1 [Example 185, (S)-2-(4-(6-((4-chloro-6-((1-cyanocyclopropyl)carbamoyl)pyridin-3-yl)methoxy)pyridin-2-yl)-2,5-difluorobenzyl)-4-fluoro-1-(oxetan-2-ylmethyl)-1H-benzo[d]imidazole-6-carboxylic acid] | 0.08
O=C(O)c1ccc2nc(Cc3cc(F)c(-c4cccc(OCc5cc6n(n5)CCC6)n4)cc3F)n(C[C@@H]3CCO3)c2c1 [Example 65, (S)-2-(4-(6-((5,6-dihydro-4H-pyrrolo[1,2-b]pyrazol-2-yl)methoxy)pyridin-2-yl)-2,5-difluorobenzyl)-1-(oxetan-2-ylmethyl)-1H-benzo[d]imidazole-6-carboxylic acid] | 0.19
Cn1cc(-c2cnc(COc3cccc(-c4cc(F)c(Cc5nc6c(F)cc(C(=O)O)cc6n5C[C@@H]5CCO5)cc4F)n3)s2)cn1 [Example 87, (S)-2-(2,5-difluoro-4-(6-((5-(1-methyl-1H-pyrazol-4-yl)thiazol-2-yl)methoxy)pyridin-2-yl)benzyl)-4-fluoro-1-(oxetan-2-ylmethyl)-1H-benzo[d]imidazole-6-carboxylic acid] | 0.08
N#CC1(NC(=O)c2cc(Cl)c(COc3cccc(-c4cc(F)c(Cc5nc6c(F)cc(C(=O)O)cc6n5C[C@@H]5CCO5)cc4F)n3)cn2)COC1 [Example 188, (S)-2-(4-(6-((4-chloro-6-((3-cyanooxetan-3-yl)carbamoyl)pyridin-3-yl)methoxy)pyridin-2-yl)-2,5-difluorobenzyl)-4-fluoro-1-(oxetan-2-ylmethyl)-1H-benzo[d]imidazole-6-carboxylic acid] | 0.05

The next lines start with the values.

EC50 [nM] | SMILES
0.366 | CC1(C)COC[C@H]1n1c(Cc2cc(F)c(-c3ccc(F)c(OCc4ncc(Cl)s4)n3)cc2F)nc2ccc(C(=O)O)cc21 [Example 255, (S)-2-(4-(6-((5-chlorothiazol-2-yl)methoxy)-5-fluoropyridin-2-yl)-2,5-difluorobenzyl)-1-(4,4-dimethyltetrahydrofuran-3-yl)-1H-benzo[d]imidazole-6-carboxylic acid]
0.312 | COc1ncc(C#Cc2ccc(COc3cccc(-c4cc(F)c(Cc5nc6ccc(C(=O)O)cc6n5C[C@@H]5CCO5)cc4F)n3)c(F)n2)s1 [Example 277, (S)-2-(2,5-difluoro-4-(6-((2-fluoro-6-((2-methoxythiazol-5-yl)ethynyl)pyridin-3-yl)methoxy)pyridin-2-yl)benzyl)-1-(oxetan-2-ylmethyl)-1H-benzo[d]imidazole-6-carboxylic acid]
0.551 | COc1nnc(COc2nc(-c3cc(F)c(Cc4nc5c(F)cc(C(=O)O)cc5n4CC4(CF)CC4)cc3F)ccc2F)s1 [Example 410, 2-(2,5-difluoro-4-(5-fluoro-6-((5-methoxy-1,3,4-thiadiazol-2-yl)methoxy)pyridin-2-yl)benzyl)-4-fluoro-1-((1-(fluoromethyl)cyclopropyl)methyl)-1H-benzo[d]imidazole-6-carboxylic acid]
0.034 | O=C(O)c1cc(F)c2nc(Cc3cc(F)c(-c4cccc(OCc5ncc(Cl)s5)n4)cc3F)n(C[C@@H]3CCO3)c2c1 [Example 319, (S)-2-(4-(6-((5-chlorothiazol-2-yl)methoxy)pyridin-2-yl)-2,5-difluorobenzyl)-4-fluoro-1-(oxetan-2-ylmethyl)-1H-benzo[d]imidazole-6-carboxylic acid]
0.155 | Cc1nnc(COc2cccc(-c3cc(F)c(Cc4nc5ccc(C(=O)O)cc5n4[C@@H]4COCC4(C)C)cc3F)n2)s1 [Example 290, (S)-2-(2,5-difluoro-4-(6-((5-methyl-1,3,4-thiadiazol-2-yl)methoxy)pyridin-2-yl)benzyl)-1-(4,4-dimethyltetrahydrofuran-3-yl)-1H-benzo[d]imidazole-6-carboxylic acid]
5.57 | NC(=O)c1sc(COc2cccc(-c3cc(F)c(Cc4nc5ccc(C(=O)O)cc5n4C[C@@H]4CCO4)cc3F)n2)cc1F [Example 204, 2-[[4-[6-[(5-carbamoyl-4-fluoro-2-thienyl)methoxy]-2-pyridyl]-2,5-difluoro-phenyl]methyl]-3-[[(2S)-oxetan-2-yl]methyl]benzimidazole-5-carboxylic acid]
0.075 | CC1(C)COC[C@H]1n1c(Cc2cc(F)c(-c3ccc(F)c(OCc4ncc(C(F)(F)F)s4)n3)cc2F)nc2c(F)cc(C(=O)O)cc21 [Example 252, 2-[[2,5-difluoro-4-[5-fluoro-6-[[5-(trifluoromethyl)thiazol-2-yl]methoxy]-2-pyridyl]phenyl]methyl]-3-[(3S)-4,4-dimethyltetrahydrofuran-3-yl]-7-fluoro-benzimidazole-5-carboxylic acid]
0.401 | CC1(C)COC[C@H]1n1c(Cc2cc(F)c(-c3ccnc(OCc4sc(C#N)cc4F)n3)cc2F)nc2ccc(C(=O)O)cc21 [Example 267, 2-[[4-[2-[(5-cyano-3-fluoro-2-thienyl)methoxy]pyrimidin-4-yl]-2,5-difluoro-phenyl]methyl]-3-[(3S)-4,4-dimethyltetrahydrofuran-3-yl]benzimidazole-5-carboxylic acid]
0.487 | COc1nnc(COc2cccc(-c3ccc(Cc4nc5ccc(C(=O)O)cc5n4[C@@H]4COCC4(C)C)c(F)c3)n2)s1 [Example 401, (S)-1-(4,4-dimethyltetrahydrofuran-3-yl)-2-(2-fluoro-4-(6-((5-methoxy-1,3,4-thiadiazol-2-yl)methoxy)pyridin-2-yl)benzyl)-1H-benzo[d]imidazole-6-carboxylic acid]
0.099 | O=C(O)c1cc(F)c2nc(Cc3cc(F)c(-c4cccc(OCc5ncc(C(F)(F)F)s5)n4)cc3F)n(CC3(CF)CC3)c2c1 [Example 412, 2-(2,5-difluoro-4-(6-((5-(trifluoromethyl)thiazol-2-yl)methoxy)pyridin-2-yl)benzyl)-4-fluoro-1-((1-(fluoromethyl)cyclopropyl)methyl)-1H-benzo[d]imidazole-6-carboxylic acid]
5.9 | COCCn1c(Cc2cc(F)c(-c3cccc(OCc4ccc(C#CC5CN(C)C5)cc4F)n3)cc2F)nc2ccc(C(=O)O)cc21 [Example 234, 2-[[2,5-difluoro-4-[6-[[2-fluoro-4-[2-(1-methylazetidin-3-yl)ethynyl]phenyl]methoxy]-2-pyridyl]phenyl]methyl]-3-(2-methoxyethyl)benzimidazole-5-carboxylic acid]
15.7 | O=C(O)c1ccc2nc(Cc3cc(F)c(-c4cccc(OCc5cn(C6CC6)nn5)n4)cc3F)n(C[C@@H]3CCO3)c2c1 [Example 210, 2-[[4-[6-[(1-cyclopropyltriazol-4-yl)methoxy]-2-pyridyl]-2,5-difluoro-phenyl]methyl]-3-[[(2S)-oxetan-2-yl]methyl]benzimidazole-5-carboxylic acid]
8.36 | COCCn1c(Cc2cc(F)c(-c3cccc(OCc4ccc(-c5cnn(C6CCOCC6)c5)cc4F)n3)cc2F)nc2ccc(C(=O)O)cc21 [Example 226, 2-(2,5-difluoro-4-(6-((2-fluoro-4-(1-(tetrahydro-2H-pyran-4-yl)-1H-pyrazol-4-yl)benzyl)oxy)pyridin-2-yl)benzyl)-1-(2-methoxyethyl)-1H-benzo[d]imidazole-6-carboxylic acid]
